# Test results taken from patent US5211944A, “Proanthocyanidin polymers having antiviral activity and methods of obtaining same” (Shaman Pharmaceuticals, Inc., priority 1991, dated 1993).
# Columns and labels:
# [1] = test system: Herpes Simplex virus; settings: HEp-2 cells; Beladi et al.; cited from earlier work
# [2] = test system: Herpes Simplex virus; settings: Beladi et al., 1977; in vitro; cited from earlier work
# [3] = test system: Influenza viruses; settings: cited from earlier work
# [4] = test system: Herpes simplex virus; settings: cited from earlier work
# [5] = test system: Herpes Simplex Virus Type 2 (HSV-2); assay: HSV-2 vaginitis in mice, topical treatment; format: in vivo, Swiss Webster mice
# [6] = Uninfected toxicity controls, topical treatment (HSV-2 study); format: in vivo, Swiss Webster mice; settings: 5% topical
# Procedure: (§1) Groups of 5 mice were sham-infected using the process described above for virus infection, except that no virus was present for the final step. These mice were treated the same way and at the same times as above. Mice were checked daily for survival, and weights were recorded before the first (day 0) and after the last (day 8) treatment.
# The efficacy of proanthocyanidin polymer A is compared with ganciclovir and acyclovir. Both ganciclovir powder and acyclovir cream were obtained commercially. Squibb cream base #8, which served as a vehicle and as the topical placebo control, was also commercially obtained.
# The methods of infecting the mice, setting toxicity control and the parameters measured to evaluate the infection were the same as described above for the intraperitoneal tests. Topical treatments on the day of infection were given at +6 hours. They were then given twice daily for 7 more days.
# [7] = test system: Herpes Simplex Virus Type 2 (HSV-2); assay: HSV-2 vaginitis in mice, intraperitoneal treatment; format: in vivo, Swiss Webster mice; settings: 30 mg/kg/day i.p.
# [8] = Uninfected toxicity controls, i.p. treatment (HSV-2 study); format: in vivo, Swiss Webster mice; settings: 30 mg/kg/day i.p.
# Procedure: Six hours after virus infection, intraperitoneal (i.p.) injections were administered using proanthocyanidin polymer A, ganciclovir, or placebo. Treatments were also given i.p. twice daily on days 1 through 7 after virus challenge. The daily dose of each compound was 30 mg/kg/day, with 15 mg/kg given at each injection. Since on day 0 of the infection only one dose was given, the daily dose for that day was 15 mg/kg/day.
# as §1
structure (smiles),measurement,setting,value
O=c1c(O)c(-c2ccc(O)c(O)c2)oc2cc(O)cc(O)c12 [quercetin],inhibitory effect on virus multiplication,[1],only a slight inhibitory effect on virus multiplication
O=c1cc(-c2ccc(O)cc2)oc2cc(O)cc(O)c12 [Apigenin],virus-inactivating (viricidal) activity,[2],only a slight effect
CC(N)C12CC3CC(CC(C3)C1)C2 (racemic) [Rimantidine],central nervous system side effects,[3],not associated with the central nervous system side-effects
same,"effect on fever duration and respiratory symptoms, versus amantadine",[3],shows a similar effect
"Nc1ncnc2c1ncn2[C@@H]1O[C@H](CO)[C@@H](O)[C@@H]1O [Vidarabine, adenine arabinoside]",topical effectiveness,[4],not effective topically against herpes labialis or other skin/genital infections
Nc1nc2c(ncn2COCCO)c(=O)[nH]1 [Acyclovir],lesion formation in infected animals,[5]; 5% cream,nearly completely prevented lesion formation
same,Average Lesion Score,"[5]; 5% topical, day 3",0.2 ± 0.2
same,Average Lesion Score,"[5]; 5% topical, day 4",0.1 ± 0.2
same,Average Lesion Score,"[5]; 5% topical, day 5",0.0 ± 0.0
same,Average Lesion Score,"[5]; 5% topical, day 6",0.0 ± 0.0
same,Average Lesion Score,"[5]; 5% topical, day 7",0.0 ± 0.0
same,Average Lesion Score,"[5]; 5% topical, day 8",0.1 ± 0.2
same,Average Lesion Score,"[5]; 5% topical, day 9",0.0 ± 0.0
same,Average Lesion Score,"[5]; 5% topical, day 10",0.0
same,Average Lesion Score,"[5]; 5% topical, day 11",0.0 ± 0.0
same,Average Lesion Score,"[5]; 5% topical, day 12",0.0 ± 0.0
same,Average Lesion Score,"[5]; 5% topical, day 13",0.0 ± 0.0
same,Average Lesion Score,"[5]; 5% topical, day 14",0.0 ± 0.0
same,No. of Mice W/O Lesion,"[5]; 5% topical, day 14 of the infection",10/10
same,Virus Titer (Day 2),"[5]; 5% topical, vaginal",0.6 ± 0.2 Log 10 50% cell culture infectious dose per ml
same,Mean Day to Death,"[5]; 5% topical, virus-infected",> 21 days
same,Survivors (%),"[5]; 5% topical, virus-infected",100%
same,Survivors/Total,"[5]; 5% topical, virus-infected",10/10
same,Host Wt. Change,[6]; day 8 minus day 0,+2.0 grams
same,Mean Day to Death,[6]; uninfected toxicity controls,> 21 days
same,Survivors/Total,[6]; uninfected toxicity controls,5/5
same,survival,"[6]; mouse, in vivo, topical or ocular, uninfected toxicity controls, read-out: Survivors (%)",100%
same,topical effectiveness,[4],not effective topically when used against recurrent genital infections
Nc1nc(O)c2ncn(COC(CO)CO)c2n1 [Ganciclovir],Average Lesion Score,[7]; day 3,0.1 ± 0.2
same,Average Lesion Score,[7]; day 4,0.2 ± 0.2
same,Average Lesion Score,[7]; day 5,0.2 ± 0.2
same,Average Lesion Score,[7]; day 6,0.2 ± 0.2
same,Average Lesion Score,[7]; day 7,0.2 ± 0.2
same,Average Lesion Score,[7]; day 8,0.3 ± 0.4
same,Average Lesion Score,[7]; day 9,0.4 ± 0.3
same,Average Lesion Score,[7]; day 10,0.5 ± 0.5
same,Average Lesion Score,[7]; day 12,0.9 ± 0.2
same,Average Lesion Score,[7]; day 13,0.6 ± 0.6
same,Average Lesion Score,[7]; day 14,0.6 ± 0.6
same,"Average Lesion Score, Grand Avg.",[7]; days 3-14,0.4 ± 0.2
same,Virus Titer (Day 3),[7]; vaginal swab,1.7 ± 1.0 Log10 50% cell culture infectious dose per ml
same,Mean Day to Death,[7]; virus-infected,> 21 days
same,Survivors (%),[7]; virus-infected,100%
same,Survivors/Total,[7]; virus-infected,10/10
same,tolerability in toxicity control mice,[8],gained less weight than placebo controls
same,Host Wt. Change,[8]; day 8 minus day 0,+1.0 grams
same,Mean Day to Death,[8]; uninfected toxicity controls,> 21 days
same,Survivors/Total,[8]; uninfected toxicity controls,5/5
same,survival,"[8]; mouse, in vivo, ip, uninfected toxicity controls, read-out: Survivors (%)",100%
